Measurements published in US7285546B2, “Cephalotaxanes, their method of preparation and their use in treatment of cancers, leukemias, parasites including those resistant to usual chemotherapeutic agents and as reversal agents” (Stragen Pharma S.A., priority 2000, dated 2007).
≈ marks a conversion by molar mass, not a printed value.

These compounds were tested on K562 cell line (assay: MTT test of structural analogues of harringtonines on K562 cell line). Settings: Homo sapiens, K562, 72 h.
Type: cell-based
Protocol: Structural analogues of harringtonines described in this invention were tested on K562 cell line, derived from chronic myeloid leukemia cells in blastic transformation (bcr-abl positive). The cell line was purchased from ATCC (American Tissue Culture Collection) and grown in RPMI medium supplemented with 10% heat-inactivated fetal calf serum, 2 mmol/L glutamine, […] penicillin and […] streptomycin. All tested products were initially dissolved in […] (pH=2), supplemented with ultrasound treatment during 1 h. Working concentrations were made by dilution in culture medium (pH around 7). Cells in exponential growth phase were placed into 96-microwell plates in concentration 3×10^4/mL (total volume 200 μL/well) and incubated with drugs for 72 h at 37° C. in 5% CO2 humidified atmosphere. Following incubation, 2 μL of MTT solution (Sigma, St. Louis, Mo.) was added to each well. During the following 6 h of incubation at 37° C., the purple formazan product was formed by conversion of the yellow MTT salt in the mitochondria of the viable cells. The resulting precipitate was dissolved in DMSO and the amount of converted MTT was quantified in an ELISA reader (MR 5000, Dynatech). Each product was tested in triplicate (3×8 wells). Every test contained at least one plate with HHT as control, added in the same concentration as the tested products.

Row | Compound | IC50 [µg/mL]
1 | COC1=C[C@]23CCCN2CCc2cc4c(cc2[C@@H]3[C@@H]1O)OCO4 [CEPHALOTAXINE (CTX), cephalotaxine, reference compound] | 2 (≈ 6.34 µM)
2 | CCOC(=O)C[C@](O)(CCCC(C)(C)O)C(=O)OC1C(OC)=C[C@@]23CCCN2CCc2cc4c(cc2[C@H]13)OCO4 (stereo partly drawn) [Example 25, (2′R)-4′-ethyl-4′-demethyl-homoharringtonine] | 0.041 (≈ 0.0733 µM)
3 | COC1=C[C@]23CCCN2CCc2cc4c(cc2[C@@H]3C1OC(=O)[C@@](O)(CCCC(C)(C)O)CC(=O)OC(C)C)OCO4 (stereo partly drawn) [Example 27, (2′R)-4′-isopropyl-4′-demethyl-homoharringtonine] | 0.08 (≈ 0.139 µM)
4 | COC1=C[C@@]23CCCN2CCc2cc4c(cc2[C@@H]3C1OC(=O)[C@@](O)(CCCC(C)(C)O)CC(=O)SC)OCO4 (stereo partly drawn) [Example 30, (2′R)-4′-methylthio-4′-demethoxy-homoharringtonine] | 0.05 (≈ 0.089 µM)
5 | CCSC(=O)C[C@](O)(CCCC(C)(C)O)C(=O)OC1C(OC)=C[C@@]23CCCN2CCc2cc4c(cc2[C@H]13)OCO4 (stereo partly drawn) [Example 32, (2′R)-4′-ethylthio-4′-demethoxy-homoharringtonine] | 0.08 (≈ 0.139 µM)
6 | COC1=C[C@@]23CCCN2CCc2cc4c(cc2[C@@H]3C1OC(=O)[C@@](O)(CCCC(C)(C)O)CC(=O)SC(C)C)OCO4 (stereo partly drawn) [Example 34, (2′R)-4′-isopropylthio-4′-demethoxy-homoharringtonine] | 0.05 (≈ 0.0848 µM)
7 | COC1=C[C@@]23CCCN2CCc2cc4c(cc2[C@@H]3C1OC(=O)[C@@](O)(CCCC(C)(C)O)CC(=O)SC(C)(C)C)OCO4 (stereo partly drawn) [Example 36, (2′R)-4′-tert-butylthio-4′-demethoxy-homoharringtonine] | 0.02 (≈ 0.0331 µM)
8 | COC1=C[C@@]23CCCN2CCc2cc4c(cc2[C@@H]3C1OC(=O)[C@@](O)(CCCC(C)(C)O)CC(=O)OCC=C(C)C)OCO4 (stereo partly drawn) [Example 39, (2′R)-4′-(3-methyl-2-butenyl)-4′-demethyl-homoharringtonine] | 0.028 (≈ 0.0467 µM)
9 | C=CCOC(=O)C[C@](O)(CCCC(C)(C)O)C(=O)OC1C(OC)=C[C@@]23CCCN2CCc2cc4c(cc2[C@H]13)OCO4 (stereo partly drawn) [Example 40, (2′R)-4′-(2-propenyl)-4′-demethyl-homoharringtonine] | 0.0145 (≈ 0.0254 µM)
10 | CC#CCOC(=O)C[C@](O)(CCCC(C)(C)O)C(=O)OC1C(OC)=C[C@@]23CCCN2CCc2cc4c(cc2[C@H]13)OCO4 (stereo partly drawn) [Example 42, (2′R)-4′-(2-butynyl)-4′-demethyl-homoharringtonine] | 0.0105 (≈ 0.018 µM)
11 | COC1=C[C@@]23CCCN2CCc2cc4c(cc2[C@@H]3C1OC(=O)[C@@](O)(CCCC(C)(C)O)CC(=O)OCC(F)(F)F)OCO4 (stereo partly drawn) [Example 48, (2′R)-4′-(2,2,2-trifluoroethyl)-4′-demethyl-homoharringtonine] | 0.1 (≈ 0.163 µM)
12 | COC1=C[C@@]23CCCN2CCc2cc4c(cc2[C@@H]3C1OC(=O)[C@@](O)(CCCC(C)(C)O)CC(=O)OCC1CC1)OCO4 (stereo partly drawn) [Example 49, (2′R)-4′-cyclopropylmethyl-4′-demethyl-homoharringtonine] | 0.07 (≈ 0.12 µM)
13 | CCCCOC(=O)C[C@](O)(CCCC(C)(C)O)C(=O)OC1C(OC)=C[C@@]23CCCN2CCc2cc4c(cc2[C@H]13)OCO4 (stereo partly drawn) [Example 50, (2′R)-4′-butyl-4′-demethyl-homoharringtonine] | 0.013 (≈ 0.0221 µM)
14 | CCCOC(=O)C[C@](O)(CCCC(C)(C)O)C(=O)OC1C(OC)=C[C@@]23CCCN2CCc2cc4c(cc2[C@H]13)OCO4 (stereo partly drawn) [Example 51, (2′R)-4′-propyl-4′-demethyl-homoharringtonine] | 0.0225 (≈ 0.0392 µM)
15 | COC1=C[C@@]23CCCN2CCc2cc4c(cc2[C@@H]3C1OC(=O)[C@@](O)(CCCC(C)(C)O)CC(=O)OCC(C)C)OCO4 (stereo partly drawn) [Example 52, (2′R)-4′-isobutyl-4′-demethyl-homoharringtonine] | 0.024 (≈ 0.0408 µM)
16 | CCCCCCOC(=O)C[C@](O)(CCCC(C)(C)O)C(=O)OC1C(OC)=C[C@@]23CCCN2CCc2cc4c(cc2[C@H]13)OCO4 (stereo partly drawn) [Example 54, (2′R)-4′-hexyl-4′-demethyl-homoharringtonine] | 0.005 (≈ 0.00812 µM)

Row | Compound | IC50 [µg/mL]
17 | CC=CCOC(=O)C[C@](O)(CCC(C)(C)O)C(=O)OC1C(OC)=C[C@@]23CCCN2CCc2cc4c(cc2[C@H]13)OCO4 (stereo partly drawn) [Example 55, (2′R)-4′-(but-2-enyl)-4′-demethyl-harringtonine] | 0.014 (≈ 0.0245 µM)
18 | CC=CCOC(=O)C[C@](O)(CCCC(C)(C)O)C(=O)OC1[C@H]2c3cc4c(cc3[C@@H]3CN5CCC[C@@]25C[C@@]1(OC)O3)OCO4 (stereo partly drawn) [Example 56, 4-(2-butenyl) (2R)-2-hydroxy-2-(4-hydroxy-4-methylpentyl)succinate of (−)-drupacine] | 0.0135 (≈ 0.0224 µM)
19 | COC(=O)C[C@](O)(CCC(C)(C)F)C(=O)OC1C(OC)=C[C@@]23CCCN2CCc2cc4c(cc2[C@H]13)OCO4 (stereo partly drawn) [Example 59, (2′R)-3″-Fluoro-3″-deoxy-harringtonine] | 0.0135 (≈ 0.0253 µM)
20 | COC(=O)C[C@](O)(CCC=C(C)C)C(=O)OC1C(OC)=C[C@@]23CCCN2CCc2cc4c(cc2[C@H]13)OCO4 (stereo partly drawn) [Example 61, 4-methyl (2R)-2-hydroxy-2-(4-methyl-pent-3-enyl)succinate of (−)-cephalotaxine] | 0.0175 (≈ 0.0332 µM)
21 | CCCCCCCOC(=O)C[C@](O)(CCCC(C)(C)O)C(=O)OC1C(OC)=C[C@@]23CCCN2CCc2cc4c(cc2[C@H]13)OCO4 (stereo partly drawn) [Example 66, (2′R)-4′-heptyl-4′-demethyl-homoharringtonine] | 0.003 (≈ 0.00476 µM)
22 | CCCCCCCCOC(=O)C[C@](O)(CCCC(C)(C)O)C(=O)OC1C(OC)=C[C@@]23CCCN2CCc2cc4c(cc2[C@H]13)OCO4 (stereo partly drawn) [Example 67, (2′R)-4′-octyl-4′-demethyl-homoharringtonine] | 0.009 (≈ 0.014 µM)
23 | CCC(C)COC(=O)C[C@](O)(CCCC(C)(C)O)C(=O)OC1C(OC)=C[C@@]23CCCN2CCc2cc4c(cc2[C@H]13)OCO4 (stereo partly drawn) [Example 69, (2′R)-4′-(methyl-2-butyl)-4′-demethyl-homoharringtonine] | 0.029 (≈ 0.0482 µM)
24 | COC1=C[C@@]23CCCN2CCc2cc4c(cc2[C@@H]3C1OC(=O)[C@@](O)(CCCC(C)(C)O)CC(=O)OCc1ccc(C)cc1)OCO4 (stereo partly drawn) [Example 72, (2′R)-4′-p-methylbenzyl-4′-demethyl-homoharringtonine] | 0.006 (≈ 0.00944 µM)
25 | COC1=C[C@@]23CCCN2CCc2cc4c(cc2[C@@H]3C1OC(=O)[C@@](O)(CCCC(C)(C)O)CC(=O)OCc1cccc(C)c1)OCO4 (stereo partly drawn) [Example 73, (2′R)-4′-m-methylbenzyl-4′-demethyl-homoharringtonine] | 0.004 (≈ 0.00629 µM)
26 | COC1=C[C@@]23CCCN2CCc2cc4c(cc2[C@@H]3C1OC(=O)[C@@](O)(CCCC(C)(C)O)CC(=O)OCCCCCO)OCO4 (stereo partly drawn) [Example 74, (2′R)-4′-(5-hydroxypentyl)-4′-demethyl-homo harringtonine] | 0.024 (≈ 0.0389 µM)
27 | COCCOC(=O)C[C@](O)(CCCC(C)(C)O)C(=O)OC1C(OC)=C[C@@]23CCCN2CCc2cc4c(cc2[C@H]13)OCO4 (stereo partly drawn) [Example 78, (2′R)-4′-(2-methoxyethoxy)-4′-demethyl-homoharringtonine] | 0.012 (≈ 0.0203 µM)
28 | COC1=C[C@@]23CCCN2CCc2cc4c(cc2[C@@H]3C1OC(=O)[C@@](O)(CCCC(C)(C)O)CC(=O)Oc1ccccc1)OCO4 (stereo partly drawn) [Example 79, (2′R)-4′-phenoxy-4′-demethylhomoharringtonine] | 0.01 (≈ 0.0165 µM)
29 | COC1=C[C@@]23CCCN2CCc2cc4c(cc2[C@@H]3C1OC(=O)[C@@](O)(CCCC(C)(C)O)CC(=O)OCCOCc1ccccc1)OCO4 (stereo partly drawn) [Example 80, (2′R)-4′-(2-benzyloxyethoxy)-4′-demethyl-homoharringtonine] | 0.025 (≈ 0.0375 µM)
30 | COC1=C[C@@]23CCCN2CCc2cc4c(cc2[C@@H]3C1OC(=O)[C@@](O)(CCCC(C)(C)O)CC(=O)OCc1cccc2ccccc12)OCO4 (stereo partly drawn) [Example 81, (2′R)-4′-(1-naphtalenemethoxy)-4′-demethyl-homoharringtonine] | 0.008 (≈ 0.0119 µM)
31 | COC1=C[C@@]23CCCN2CCc2cc4c(cc2[C@@H]3C1OC(=O)[C@@](O)(CCCC(C)(C)O)CC(=O)OCc1cccs1)OCO4 (stereo partly drawn) [Example 82, (2′R)-4′-(2-thiophenemethoxy)-4′-demethyl-homoharringtonine] | 0.005 (≈ 0.00796 µM)

Same assay, conditions: Homo sapiens; K562 cell line, 72 h incubation, MTT; read-out: IC50

Row | IC50 [µg/mL] | Compound
32 | 0.025 (≈ 0.0456 µM) | [2H]C([2H])([2H])OC(=O)C[C@](O)(CCCC(C)(C)O)C(=O)OC1C(OC)=C[C@@]23CCCN2CCc2cc4c(cc2[C@H]13)OCO4 (stereo partly drawn) [Example 75, (2′R)-(4′-^2H3)homoharringtonine]
33 | 0.018 (≈ 0.0329 µM) | [2H]COC(=O)C[C@](O)(CCCC(C)(C)O)C(=O)OC1C(OC)=C[C@@]23CCCN2CCc2cc4c(cc2[C@H]13)OCO4 (stereo partly drawn) [Example 76, (2′R)-(4′-^2H)homoharringtonine]

Same assay, conditions: K562 cell line, 72 h incubation, MTT

Row | Compound | IC50 [µg/mL]
34 | 4-(hexa-2,4-dienyl) (2R)-2-hydroxy-2-(4-hydroxy-4-methylpentyl)succinate of (−)-drupacine [Example 57] | 0.009
35 | CC=CCOC(=O)C[C@](O)(CCCC(C)(C)O)C(=O)O[C@@H]1C(OC)=C[C@]23CCCN2CCc2cc4c(cc2[C@H]13)OCO4 [Example 37, (2′R)-4′-(but-2-enyl)-4′-demethyl-homoharringtonine] | 0.0125 (≈ 0.0213 µM)
36 | C=C(C)COC(=O)C[C@](O)(CCCC(C)(C)O)C(=O)O[C@@H]1C(OC)=C[C@]23CCCN2CCc2cc4c(cc2[C@H]13)OCO4 [Example 41, (2′R)-4′-(2-methyl-2-propenyl)-4′-demethyl-homoharringtonine] | 0.0085 (≈ 0.0145 µM)
37 | CC=CCCCOC(=O)C[C@](O)(CCCC(C)(C)O)C(=O)O[C@@H]1C(OC)=C[C@]23CCCN2CCc2cc4c(cc2[C@H]13)OCO4 [Example 53, (2′R)-4′-(hex-4-enyl)-4′-demethyl-homoharringtonine] | 0.0085 (≈ 0.0138 µM)
